These results are taken from patent US20230190778A1, “COMPOSITION COMPRISING GLUCOSE OLIGOSACCHARIDE AND PROCESS FOR MAKING THE SAME AND USE THEREOF” (CARGILL, INCORPORATED, priority 2020, published 2023).

Series [1] deals with chicken macrophage-like cell line HD11. In words: Nitric oxide (NO)-production assay (Griess). The class given is cell-based. To be noted: HD11 cells. Here is the method: A nitric oxide production assay using chicken macrophage-like cell line HD11, as also described by Biggelaar et al., Vaccines 2020, 8(2), 332, was carried out to compare immune responses in terms of NO production of the glucose-oligosaccharide according to Example 1 and a prior art glucose-oligosaccharide fibre according to Example 2.
To obtain a standard NO calibration curve, the Griess assay was used as described by Biggelaar et al.
On day 1 HD11 cell were seeded, day 2 compounds were added at different concentrations i.e. at 10 ppm, 50 ppm and 100 ppm. […] Compounds were tested in triplicate per NO assay i.e. in total 3 series of NO assays were performed per compound per concentration.
(NB: Negative output implies zero NO production. Negative values arise due to the calculation based on the standard NO calibration curve. Negative output can be seen as 0 NO production.)

Series [2] relates to developing embryos (unhatched chicks). In words: In ovo trial (hatchability / safety). The series is classed as in vivo, chicken. The note with it: 1 mL injected in ovo at 17 days of incubation; at up to just 0.006 mg; FIG. 4. Here is the method: The trials were thus carried out to indicate safety of the compound according to the invention in animals In this case, a comparison was made with Example 3, a commercially available conjugated linoleic acid (CLA). It is known that CLA may modulate the immune system.
480 eggs we incubated under standard conditions. They were divided unto 8 groups of 10 eggs replicated 6 times. At 17 days of incubation eggs were injected with 1 mL of the respective solution of Example 1 and Example 3 at increasing concentrations. The intention was to deliver into the amniotic fluid to be orally consumed and digested by the developing embryos according to the method described by (Uni et al., 2005, Poult Sci 84:764-770). At day of hatch, hatched chicks as well as remaining non-hatched eggs were counted and % hatchability was calculated to indicate safety of injected materials by not causing mortality.

As for Lipopolysaccharide [LPS], the “NO production (positive control)” value in series [1] is recorded as “high NO production”.

conjugated linoleic acid [Example 3]: the hatchability result in series [2] is “Not all of the chicks hatched”.
